Data taken from PubChem BioAssay (NCI).
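1) Cells in 96-well plates. 2) Compound, 48 h, 5 concentrations. 3) Linear interpolation between surrounding doses. 4) Unreached endpoint = highest concentration. The concentration for full growth arrest is given as TGI.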

Tests used:
Experiment in all cases: DTP human tumour cell line panel, 48 h
COLO 205 colon = test system: COLO 205 colon
TK-10 renal = test system: TK-10 renal
HOP-62 NSCLC = test system: HOP-62 NSCLC
NCI-H522 lung = test system: NCI-H522 lung
LOX IMVI melanoma = test system: LOX IMVI melanoma
K-562 leukemia = test system: K-562 leukemia
MALME-3M melanoma = test system: MALME-3M melanoma
CAKI-1 renal = test system: CAKI-1 renal
IGROV1 ovarian = test system: IGROV1 ovarian
OVCAR-5 ovarian = test system: OVCAR-5 ovarian
A549 NSCLC = test system: A549 NSCLC
SK-MEL-2 melanoma = test system: SK-MEL-2 melanoma
SNB-19 CNS = test system: SNB-19 CNS
CCRF-CEM leukemia = test system: CCRF-CEM leukemia
UO-31 renal = test system: UO-31 renal
RPMI-8226 leukemia = test system: RPMI-8226 leukemia
RXF 393 renal = test system: RXF 393 renal
SNB-75 CNS = test system: SNB-75 CNS
NCI-H226 lung = test system: NCI-H226 lung
UACC-257 melanoma = test system: UACC-257 melanoma

SMILES	TGI (COLO 205 colon) [µM]	TGI (TK-10 renal) [µM]	TGI (HOP-62 NSCLC) [µM]	TGI (NCI-H522 lung) [µM]	TGI (LOX IMVI melanoma) [µM]	TGI (K-562 leukemia) [µM]	TGI (MALME-3M melanoma) [µM]	TGI (CAKI-1 renal) [µM]	TGI (IGROV1 ovarian) [µM]	TGI (OVCAR-5 ovarian) [µM]	TGI (A549 NSCLC) [µM]	TGI (SK-MEL-2 melanoma) [µM]	TGI (SNB-19 CNS) [µM]	TGI (CCRF-CEM leukemia) [µM]	TGI (UO-31 renal) [µM]	TGI (RPMI-8226 leukemia) [µM]	TGI (RXF 393 renal) [µM]	TGI (SNB-75 CNS) [µM]	TGI (NCI-H226 lung) [µM]	TGI (UACC-257 melanoma) [µM]
Nc1ccccc1N	> 100	> 100	> 100	47.5	> 100	> 100	> 100	> 100	> 100	> 100	> 100	> 100	> 100	> 100	> 100	> 100	> 100	> 100		
O=C1c2cc(Br)ccc2-c2ccc3c4ccc5c6c(ccc(c7ccc1c2c73)c64)C(=O)c1cc(Br)ccc1-5	> 100	> 100	> 100	> 100	> 100	> 100	> 100	> 100	> 100	> 100	> 100	> 100	> 100	> 100	> 100	> 100	> 100		> 100	> 100
O=C(O)C(Cc1cc(I)c(O)c(I)c1)C1CCCCC1 (stereo not drawn)		88.7	> 100	> 100	> 100	> 100	> 100	> 100	> 100	> 100	> 100		> 100	> 100	> 100		> 100	> 100	> 100	> 100
CCOC(=O)CC1=N/C(=N/C(=N)N[N+](=O)[O-])SC1	> 100	> 100	> 100	> 100	> 100	> 100	> 100	> 100	> 100	> 100	> 100	> 100	> 100	> 100	> 100		> 100	> 100	> 100	> 100
NCCCCCC(CCN)SCC1OC(n2cnc3c(N)ncnc32)C(O)C1O (stereo not drawn)	> 1500		> 1500	> 1500	> 1500	> 1500	> 1500	1270	> 1500	> 1500	> 1500	> 1500	> 1500	> 1500	> 1320	1140	> 1500	> 1500	> 1500	> 1500
N=c1sc2ccccc2n1CCS (tested in a mixture with another compound)	27.5	48.6	39.8	45.4	30.5	44.7	37.6	45.8	27.5	57.3	37.3	45.5	37.6	> 100	25.8		48.5	> 100	35.3	45.8
NC(Cc1ccc(CP(=O)(O)O)cc1)C(=O)O (stereo not drawn)	> 100	> 100		> 100	> 100	> 100		> 100	> 100	> 100	> 100	> 100	> 100	> 100	> 100	> 100	> 100	> 100		> 100
COc1ccc(-c2cc(N3CCN(c4ccc(Cl)cc4)CC3)c(C#N)c(=O)o2)cc1	> 100	37.7			> 100		22.3	34.2	42.4	> 100	32.3	45.3	23.8		30.5	87.9	17.3	10.8	7.57	73.1
C/C(=N/NC(=O)c1ccncc1)C(F)(F)F	> 100	> 100	> 100	> 100		> 100	> 100	> 100	> 100	> 100		> 100	> 100		> 100	> 100	> 100	> 100	> 100	
O=C(O)c1ccccc1CN1CCCC(C(=O)O)C1 (stereo not drawn)	> 100	> 100	> 100	> 100	> 100	> 100	> 100	> 100	> 100	> 100	> 100	> 100	> 100		> 100	> 100	> 100	> 100	> 100	> 100
CC(C)(C)[Si](C)(C)OCC1OC(n2cnc3c(N)ncnc32)C2OC(=S)OC12 (stereo not drawn)	> 100	> 100	> 100		> 100	> 100	98.3	> 100	> 100	86.6		74.7	> 100	59	78.3	> 100	> 100	> 100	> 100	> 100
CCOc1ccc(/C=C2\N=C(c3ccccc3)OC2=O)cc1		> 100	> 100	> 100		> 100			> 100	> 100	> 100	> 100	> 100	> 100	> 100	> 100	> 100	> 100	> 100	> 100
CN1C2CCC1/C(=C/c1cccc3c1OCO3)C(=O)/C2=C\c1cccc2c1OCO2	> 100	56.2	41.2		> 100		> 100		> 100	> 100		> 100		> 100	> 100	> 100	68	49.7	> 100	> 100
Fc1ccc(Nc2nc(Cl)c3[nH]cnc3n2)cc1Cl	> 100	> 100	> 100	> 100	> 100		> 100	> 100	> 100	> 100	> 100	> 100	> 100	> 100	33.5	> 100		> 100	> 100	> 100
C=C=C[P+](c1ccccc1)(c1ccccc1)c1ccccc1	10.3	78.2	> 100	6		9.46	26.7		> 100		> 100	26.5		22.3	> 100	6.37		44.9		39.5
CC(=O)CCC#Cc1ccccc1C(=O)C(C)=[N+]=[N-]	39.6	> 100	> 100		> 100	> 100	84.1		> 100	> 100	> 100	> 100	> 100	> 100	> 100	68.3	97.5	69.2	> 100	> 100
